Data on 1 compound can be found in patent US11225481B2 (Centre national de la recherche scientifique, priority 2015, dated 2022).

The term Kd denotes the free concentration of one partner at which half of the binding sites on the other are occupied at equilibrium, for simple one-to-one binding. Low values mean higher affinity, high ones lower affinity. For orientation: IC50 means the concentration that inhibits the measured activity by half.

The target of experiment [1] is T1, BRD4(BD1) (Homo sapiens, UniProt O60885).
T1 construct: a BRD4(BD1) synthetic gene that includes a TEV cleavage site was purchased from LifeTechnology; made in house
Put plainly: Isothermal Titration Calorimetry. Type of experiment: binding. From the text: For Isothermal Titration Calorimetry (ITC) and crystallogenesis, BRD4(BD1) was produced and purified using a histidine tag affinity chromatography as described by Filipakopoulos et al.9 For these experiments, a pNIC28-BSA4 expression vector containing BRD4(BD1) and a Tobacco Etch Virus (TEV) protease cleavage site have kindly been provided by Stefan Knapp laboratory from the SGC at the University of Oxford. After size exclusion chromatography, the fractions presenting pure BRD4(BD1) after TEV cleavage of the histidine tag were pooled and concentrated to 25 mg/mL for crystallogenesis. For ITC assays, the protein was concentrated up to at 6 mg/mL and the DTT was removed using a buffer exchange column (PD10 from GE healthcare) equilibrated with 10 mM HEPES pH=7.5, 150 mM NaCl. For Homogeneous Time Resolved Fluorimetry (HTRF) experiments, a BRD4(BD1) synthetic gene that includes a TEV cleavage site was purchased from LifeTechnology in a pDONR transport vector before cloning into a pDESTTM15 expression vector for GST affinity purification. Protein production and purification was carried out using similar protocols and buffers as used for the His-BRD4(BD1) system. Purification was carried on GST affinity resin (Thermo Scientific) and reduced glutathione was used for protein release. GST-BRD4(BD1) was further purified by size exclusion chromatography on a Superdex 16/60 Hiload column (GE Healthcare) using 20 mM TRIS pH=8.0, 150 mM NaCl Buffer.
ITC was used to evaluate the thermodynamics parameters of the binding between BRD4(BD1) and the selected compounds, using ITC conditions previously described by Filippakopoulos et al.8 Purified BRD4(BD1) was extensively dialyzed in the ITC buffer containing 10 mM Hepes pH=7.5 and 150 mM NaCl. Compounds were diluted directly in the last protein dialysate prior to experiments. Titrations were carried out on a MicroCal ITC200 microcalorimeter (GE Healthcare, Piscataway, N.J.). Each experiment was designed using a titrant concentration (protein in the syringe) set 10 to 15 times the analyte concentration (compound in the cell generally between 10 and 35 μM) and using 13 injections at 35° C. A first small injection (generally 0.2 μL) was included in the titration protocol in order to remove air bubbles trapped in the syringe prior titration. Raw data were scaled after setting the zero to the titration saturation heat value. Integrated raw ITC data were fitted to a one site non-linear least squares fit model using the MicroCal Origin plugin as implemented in Origin 7 (Origin Lab). Finally, ΔG and TΔS values were calculated from the fitted ΔH and KA values using the equations ΔG=−R.T. ln KA and ΔG=ΔH−TΔS.
(Isothermal titration calorimetry measures the heat released or taken up as one component is titrated into another.)

Experiment [2] deals with T2, BRD3(BD2) (Homo sapiens, UniProt Q15059).
T2 construct: purchased BPS Bioscience
Nature of the experiment: HTRF bromodomain selectivity profile. Type of experiment: binding. The settings on record: Table 3 selectivity profile. As for the experimental part:
(§1) Compounds were dispensed, with 200 nL per well (1% final DMSO), from a concentration stock of 1 mM in 100% DMSO and with serial DMSO dilutions, using a Mosquito Crystal pipetting robot platform (TTP labtech). […] All HTRF reagents were purchased from CisBio Bioassays and reconstituted according to the supplier protocols. For each assay 14.7 μL of mix 1 (protein+peptide) is added in the assay wells, containing previously dispensed inhibitors, according to the final concentration and buffer described in Table 4, using a Biomek NX MC pipetting robot (Beckman). Then, 5.1 μL of mix 2 (donnor+acceptor) is added. HTRF signals were measured, after a final incubation (overnight at room temperature), using a PHERAstar FS (BMG Labtech) with an excitation filter at 337 nm and fluorescence wavelength measurement at 620 and 665 nm, an integration delay of 60 μs and an integration time of 500 μs. Results were analyzed with a two-wavelengths signal ratio: […] Percentage of inhibition was calculated using the following equation: % inhibition=[(compound signal)−(min signal)]/[(max signal)−(min signal)]*100, where ‘max signal’ is the signal ratio with the compound vehicle alone (DMSO) and ‘min signal’ the signal ratio without peptide. For IC50 measurements, values were normalized and fitted with Prism (GraphPad software) using the following equation: […] Selectivity profiles of bromodomain inhibitors were performed as described in HTRF screen section. […] HTRF detection reagents (EPIgeneous™ Binding Domain kits) were purchased from Cisbio Bioassays and used according to supplier's protocol. GST tagged bromodomain proteins were purchased from BPS Bioscience and histone peptide from Anaspec. [table]
On the technique in general: In TR-FRET formats the signal depends on donor and acceptor labels being close together.

In experiment [3] the target is T3, BRD3(BD1) (Homo sapiens, UniProt Q15059).
T3 construct: purchased BPS Bioscience
Nature of the experiment: HTRF bromodomain selectivity profile. Format: binding. The settings on record: Table 3 selectivity profile. As to the method:
as §1

Experiment [4] deals with c-Myc. Nature of the experiment: Western blot of c-Myc in Jurkat cells. The settings on record: 24 h, same range of concentration as EC50. Format: cell-based, human. As for the experimental part:
Non-treated Jurkat cells and Jurkat cells treated during 24 h with compound of the invention 26b, or DMSO were lysed in RIPA lysis buffer (Tris HCl pH=7.5 50 mM, NaCl 150 mM, Triton 1%, SDS 0.1%, sodium deoxycholate 1%) supplemented with protease inhibitor cocktail (P8340, Sigma-Aldrich) and 1 mM PhenylMethylSulfonyl Fluoride (Sigma-Aldrich). 75 μg of protein were loaded onto 10% acrylamide SDS/PAGE and then transferred to nitrocellulose Hybond C-extra membranes, […] (GE Healthcare). The membranes were saturated with 5% (wt/vol) skim milk in TBST [Tris-buffered saline/0.1% (vol/vol) Tween 20] 1 h at room temperature and incubated with anti-myc antibody (clone 9E10, sc40 Santa Cruz) at a 1:500 dilution in 0.5% (wt/vol) skimmed milk in TBST overnight at 4° C. Membranes were then washed with TBST, incubated with an HRP-conjugated anti-mouse secondary antibody (polyclonal goat anti mouse P0447, Pierce) at a 1:20,000 dilution in TBST 1 h at room temperature. […] Quantification was performed using ImageJ software.
Background: In western blotting, separated proteins are transferred to a membrane and probed.

T2 sequence (Q15059 306-415 limits assumed): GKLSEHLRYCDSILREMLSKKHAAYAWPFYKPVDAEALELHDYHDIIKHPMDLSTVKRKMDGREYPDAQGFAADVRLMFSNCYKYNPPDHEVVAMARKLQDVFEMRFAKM
T3 sequence (Q15059 34-140 limits assumed): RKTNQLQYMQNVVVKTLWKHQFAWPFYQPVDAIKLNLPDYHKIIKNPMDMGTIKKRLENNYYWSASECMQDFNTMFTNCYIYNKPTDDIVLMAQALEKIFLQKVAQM

Turning to `CCCCc1c(C)nc2nc(SCc3nc4c(c(=O)[nH]c(=O)n4CCCC)n3CC)nn2c1C` [Compound 26b, 3-Butyl-8-(6-butyl-5,7-dimethyl-[1,2,4]triazolo[1,5-a]pyrimidin-2-ylsulfanylmethyl)-7-ethyl-3,7-dihydro-purine-2,6-dione], the “entropy term −TΔS” value in experiment [1] (ITC, BRD4(BD1)) is -7.1 kcal/mol. The Kd in experiment [1] (Isothermal Titration Calorimetry) was 1.4 µM. Also, in experiment [2], the IC50 is greater than 100 µM and the “IC50 (μM) BRD3(BD2)” value is on record as “no detectable inhibition”. Also, the IC50 in experiment [3] came to 62 ± 7.8 µM. In addition, in experiment [4], the c-Myc down regulation entry is “down regulated c-Myc”.
